Assays:
[1] = Skin temperature within intracutaneous wheals compared with skin outside the wheals during anesthesia; type: in vivo, humans; details: for T1 °C Intracutaneous Wheal / °C Difference: HCl-salt; for T1 °C Intracutaneous Wheal: center of wheal, 10 minutes after intracutaneous injection, mean of 6 wheals; for °C Difference: T1 (wheal) minus T2 (controls outside wheal), 10 minutes after injection; for change of temperature over the wheal, in words: Table 4, Conc. 0.25 %
Description: The means value of 6 wheals for each substance forms the basis for the values. The control values, however, represent the mean value obtained from 4 different sites measured outside the wheals 90 degrees apart and 2 centimeters from the wheal's center.
In the temperature measurements, an Oriel temperature apparatust has been used. This is battery driven and is connected to a detector (diameter, 2,5 mm) and has an accuracy of ± 0.1°C. The temperature of the skin is measured by pressing the detector against the skin with a pressure of 100 grams.
against the skin until a constant temperature is obtained.
In Table 4, T, is the measurement obtained at the center of the wheal, and T2 is the average of four measurements taken 90 degrees apart outside of the wheal and within 2 centimeters of the wheal's center.

[2] = racemate; from Aberg et al., Acta pharmacol. et toxicol. 41 (1977), Table 1 at p. 435; cited from earlier work
[3] = racemate; from Aberg et al., Acta pharmacol. et toxicol. 41 (1977), Table 1 at p. 435; cited from earlier work; remark: listed apart in the source
[4] = in vivo
From the text: • ^* Trypan blue test; Hoppe et al. (1950), 39, 147-151 "Use Of Trypan Blue And Rabbit Eye Tests For Irritation", J. Amer. Pharm. Ass. (Scient. Ed.), the values are approximate threshold values of tissue irritancy. • ^** LD50, i.e. 50% mortality of mice. • ^*** Studies On The Duration Of Local Anaesthesia: Structure/Activity Relationships In A Series Of Homologous Local Anaesthetics, by G. Aberg, et al., Acta pharmacol. et toxicol., 41 (1977) pp. 432-443, Table 1 at p. 435.

in vivo = details: mouse, iv, read-out: LD50** I.v. (intravenous) mg/kg/mouse
ulnar volar nerves = assay: Digital nerve blocks in man (finger blockade); type: in vivo; details: compared among 12 optically active and inactive structures
Description: ^2 Digital nerve blocks in man. The test solutions were injected to block the ulnar volar nerves on the 2nd and 4th fingers of the same volunteers who has participated in the intracutaneous wheal tests described above. The tests were carried out in a double blind fashion in a rotating system, so that each solution was used with equal frequency on each of the blocked fingers. A total of four injections, 1.0 ml per injection, was done in each subject. One week later the procedure was repeated in the same subjects using the remaining test solutions. This method has been described by Dhuner et al. (1972) (for citation see Table 2 footnote 1). To measure the efficacy and duration of the blocks, the individual fingers were pricked rapidly 10 times with a needle algesimeter and the number of painful pricks noted. Each finger was tested every five minutes until complete recovery. The time of complete anesthesia has been called "duration of anesthesia". • ^* i.e. - the time from injection to complete analgesia • ^** i.e. - the number of successful anesthesias of total number of anesthesias performed (no anesthesia is possible if the ulnar volar nerves are not contacted by the anesthetic) • *** new isolated stereoisomers

[5] = test system: periphera nerve ending of the epidermis; assay: Infiltration anesthesia, intracutaneous wheals on forearms of man (pin-prick); type: in vivo; details: compared among 12 optically active and inactive structures
Description: By use of intracutaneous wheals it is possible to measure the analgesic effect of an anesthetic on the periphera nerve ending of the epidermis.
This technique gives information about: • (1) the duration of anesthesia. • (2) Epidermal diffusion. • (3) Vascular effects. [formula]
' Infiltration anesthesia on forearms of man. The test solutions were injected intracutaneously on the dorsum of the forearms of 12 healthy volunteers, 20-25 years old. Three wheals were made on each arm in a rotating system in a double-blind fashion. The local anesthetic effect was tested using a pin-prick technique. the "duration of anesthesia" was defined as the time during which none of six pin-pricks into the wheel was felt. The method had been described by Dhuner et al. (1972). Dhuner, K. G., D. H. Lewis, A. Nyquist, D. Selander & E. Stig: Vascular effects of the isomers of mepivacaine, Acta Anaest. Scand. 1972, Supple. 48, 45-52. • * L=Laevo, R=Racemic, D=Dextro • ** C equals grams per 100 ml of solution. • ^*** New isolated stereoisomers [formula]

SMILES | T1 °C Intracutaneous Wheal ([1]; Conc. 0.25 %) | °C Difference ([1]; Conc. 0.25 %) | Tissue* toxicity limits in % [4] | also measured
CCCN1CCCCC1C(=O)Nc1c(C)cccc1C (racemic) [No. 3, N-n-propylpipecolic acid-2,6-xylidide] | 33.1 °C | −0.1 °C |  | change of temperature over the wheal, in words [1]: practically no change in temperature; Tissue toxicity (tissue irritancy), in words [2]: tissue irritating; solubility in water, in words [3]: slightly soluble in water
CCCCN1CCCCC1C(=O)Nc1c(C)cccc1C (racemic) [No. 4, N-n-butylpipecolic acid-2,6-xylidide] | 31.5 °C | −0.6 °C |  | 
Cc1cccc(C)c1NC(=O)C1CCCCN1C (racemic) [compound 1] |  |  | 3.5% | LD50 (in vivo): 40.3 mg/kg
CCN1CCCCC1C(=O)Nc1c(C)cccc1C (racemic) [compound 2] |  |  | 3.0% | LD50 (in vivo): 21 mg/kg
CCCN1CCCCC1C(=O)Nc1c(C)cccc1C (racemic) [compound 3] |  |  | 1.5% | 
CCCN1CCCC[C@H]1C(=O)Nc1c(C)cccc1C [L-N-n-propylpipecolic acid-2,6-xylidide] | 30.0 °C | −1.2 °C | 0.75% | anesthetic effects, finger-blockade (Table 3), in words (ulnar volar nerves): gives the optimal increase of anesthetic effects; change of temperature over the wheal, in words [1]: lowers the temperature over its wheal to approximately the same extent as the combination of lidocaine with adrenaline; anesthetic effects, intracutaneous wheal (Table 2), in words [5]: gives the optimal increase of anesthetic effects
CCN1CCCC[C@@H]1C(=O)Nc1c(C)cccc1C [R-N-2-ethyl-pipecolic acid-2,6-xylidide] |  |  |  | T1 °C Intracutaneous Wheal ([1]; Conc. 1.0 %): 31.2 °C; °C Difference ([1]; Conc. 1.0 %): +0.5 °C

Reference: patent publication EP0151110B1 (priority 1983, dated 1985)
